Source: ChEMBL document CHEMBL4340502, “Anti-biofilm and anti-adherence properties of novel cyclic dipeptides against oral pathogens” (Bioorg Med Chem, 2019)
In brackets after ≈: the same amount, converted by molar mass. Activity calls are given as the source filed them. Unless noted, the rule behind the calls is not given here.

Legend:
Candida albicans [1] = assay: Antiadherence activity against FITC-labelled Candida albicans ATCC 28366 assessed as reduction in bacterial adhesion to hydroxylapatite up to 96 ug/mL after 1 hr by fluorescence assay relative to control; assay type: functional; set-up: scale not given: the % may be the effect or the level left
[2] = target: Mu-type opioid receptor (Rattus norvegicus) (UniProt P33535); assay: Displacement of [3H]DAMGO from mu-opioid receptor in Long-Evans rat brain after 1 hr by liquid scintillation counting method; assay type: tissue-based
Chain of Mu-type opioid receptor (Rattus norvegicus) (P33535 whole entry): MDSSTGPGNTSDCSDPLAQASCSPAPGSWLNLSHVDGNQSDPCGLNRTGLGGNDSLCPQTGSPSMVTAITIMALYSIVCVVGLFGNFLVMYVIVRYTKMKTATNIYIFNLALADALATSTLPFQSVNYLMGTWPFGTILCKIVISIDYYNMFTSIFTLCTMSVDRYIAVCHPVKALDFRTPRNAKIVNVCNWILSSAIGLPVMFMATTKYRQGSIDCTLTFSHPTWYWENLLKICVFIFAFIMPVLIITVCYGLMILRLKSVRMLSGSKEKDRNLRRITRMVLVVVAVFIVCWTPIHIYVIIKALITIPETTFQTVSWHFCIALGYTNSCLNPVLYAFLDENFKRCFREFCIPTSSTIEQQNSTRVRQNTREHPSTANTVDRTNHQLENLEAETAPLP

Streptococcus mutans [3] = assay: Antibiofilm activity against Streptococcus mutans ATCC 25175 assessed as inhibition of biofilm formation up to 96 ug/mL after 24 hrs by crystal violet staining-based assay; assay type: functional, organism-based
Candida albicans [4] = assay: Growth inhibition of Candida albicans ATCC 28366 up to 96 ug/ml measured after 24 hrs by microdilution method; assay type: organism-based; conditions: in vitro
Streptococcus mutans [5] = assay: Inhibition of planktonic growth of Streptococcus mutans ATCC 25175 up to 96 ug/mL after 24 hrs relative to control; assay type: organism-based
Streptococcus mutans [6] = assay: Bactericidal activity against Streptococcus mutans ATCC 25175; assay type: organism-based
Streptococcus mutans [7] = assay: Growth inhibition of Streptococcus mutans ATCC 25175 incubated for 24 hrs under aerobic condition by microdilution method; assay type: organism-based
Candida albicans [8] = assay: Antibiofilm activity against Candida albicans ATCC 28366 assessed as reduction of biofilm formation up to 96 ug/mL after 24 hrs by crystal violet staining based assay; assay type: functional, organism-based
[9] = system: Limosilactobacillus fermentum; assay: Antibiofilm activity against Lactobacillus fermentum LacB1 assessed as inhibition of biofilm formation up to 96 ug/mL after 24 hrs by crystal violet staining based assay; assay type: functional, organism-based
Pseudomonas aeruginosa [10] = assay: Growth inhibition of Pseudomonas aeruginosa ATCC 10145 incubated for 24 hrs under aerobic condition by microdilution method; assay type: organism-based
Escherichia coli [11] = assay: Growth inhibition of Escherichia coli ATCC 15939 incubated for 24 hrs under aerobic condition by microdilution method; assay type: organism-based
Porphyromonas gingivalis = assay: Antibiofilm activity against Porphyromonas gingivalis ATCC 33277 assessed as inhibition of biofilm formation up to 96 ug/mL after 24 hrs by crystal violet staining based assay; assay type: functional, organism-based
Actinomyces naeslundii = assay: Antibiofilm activity against Actinomyces naeslundii ATCC 49340 assessed as reduction in biofilm formation up to 96 ug/mL after 24 hrs by crystal violet staining-based assay; assay type: functional, organism-based
Staphylococcus aureus [12] = assay: Growth inhibition of Staphylococcus aureus ATCC 6538 incubated for 24 hrs under aerobic condition by microdilution method; assay type: organism-based; conditions: in vitro
Fusobacterium nucleatum = assay: Antibiofilm activity against Fusobacterium nucleatum ATCC 25586 assessed as inhibition of biofilm formation up to 96 ug/mL after 24 hrs by crystal violet staining based assay; assay type: functional, organism-based
Streptococcus mutans [13] = assay: Antiadherence activity in FITC-labelled Streptococcus mutans ATCC 25175 assessed as reduction in bacterial adhesion to hydroxylapatite up to 96 ug/mL after 1 hr fluorescence assay; assay type: functional, organism-based
Listeria monocytogenes = assay: Growth inhibition of Listeria monocytogenes WSLC 1001 incubated for 24 hrs under aerobic condition by microdilution method; assay type: organism-based; conditions: in vitro
Candida albicans [14] = assay: Antiadherence activity in FITC-labelled Candida albicans ATCC 28366 assessed as reduction of bacterial adhesion to hydroxylapatite at 96 ug/mL after 1 hr by fluorescence assay relative to control; assay type: functional; set-up: scale not given: the % may be the effect or the level left
[15] = Solubility of the compound in water; assay type: physicochemical; conditions: buffer
Streptococcus mutans [16] = assay: Antiadherence activity in FITC-labelled Streptococcus mutans ATCC 25175 assessed as reduction in bacterial adhesion to hydroxylapatite at 3 ug/mL after 1 hr fluorescence assay; assay type: functional, organism-based
Candida albicans [17] = assay: Antiadherence activity against FITC-labelled Candida albicans ATCC 28366 assessed as reduction in bacterial adhesion to hydroxylapatite at 3 ug/mL after 1 hr by fluorescence assay; assay type: functional, organism-based
Streptococcus mutans [18] = assay: Antiadherence activity in FITC-labelled Streptococcus mutans ATCC 25175 assessed as reduction of bacterial adhesion to hydroxylapatite at 96 ug/mL after 1 hr by fluorescence assay; assay type: functional; set-up: scale not given: the % may be the effect or the level left
Streptococcus mutans [19] = assay: Inhibition of planktonic growth of Streptococcus mutans ATCC 25175 at 96 ug/mL measured after 24 hrs relative to control; assay type: organism-based
Fibroblast = assay: Cytotoxicity against human fibroblasts; assay type: cell-based
A549 = assay: Growth inhibition of human A549 cells; assay type: functional, cell-based
Streptococcus mutans [20] = assay: Inhibition of planktonic growth of Streptococcus mutans ATCC 25175 at MIC> 192 ug/mL after 24 hrs relative to control; assay type: organism-based
Staphylococcus aureus [21] = assay: Antibacterial activity against Staphylococcus aureus MTCC 902 measured after 24 hrs by broth dilution method; assay type: functional; conditions: MTCC 902, 24 h
Pseudomonas aeruginosa [22] = assay: Antibacterial activity against Pseudomonas aeruginosa MTCC 2642 measured after 24 hrs by broth dilution method; assay type: functional; conditions: MTCC 2642, 24 h
Escherichia coli [23] = assay: Antibacterial activity against Escherichia coli MTCC 2622 measured after 24 hrs by broth dilution method; assay type: functional; conditions: MTCC 2622, 24 h

| Activity [2] | Structure (SMILES) | Activity (Candida albicans [1]) | inhibition (Streptococcus mutans [3]) | growth inhibition (GI) (Candida albicans [4]) | growth inhibition (GI) (Streptococcus mutans [5]) | Activity (Candida albicans [8]) | inhibition [9] | MIC (Pseudomonas aeruginosa [10]) [µg/mL] | MIC (Escherichia coli [11]) [µg/mL] | inhibition (Porphyromonas gingivalis) | Activity (Actinomyces naeslundii) | MIC (Staphylococcus aureus [12]) [µg/mL] | inhibition (Fusobacterium nucleatum) | MIC (Listeria monocytogenes) [µg/mL] | Activity (Fibroblast) | other results |
| --- | --- | --- | --- | --- | --- | --- | --- | --- | --- | --- | --- | --- | --- | --- | --- | --- |
| Active | O=C1N[C@@H](Cc2ccc(O)cc2)C(=O)N[C@H]1Cc1ccc(O)cc1 | 20% | inactive | Non-Toxic | Toxic | Active | inactive | > 192 | > 192 | inactive | inactive | > 192 | inactive | > 192 |  | MBC (Streptococcus mutans [6]): > 192 µg/mL; MIC (Streptococcus mutans [7]): 96 µg/mL (≈ 294 µM); Activity (Streptococcus mutans [13]): inactive |
|  | O=C1N[C@H](Cc2ccc(OCc3ccccc3)cc2)C(=O)N[C@H]1Cc1ccc(OCc2ccccc2)cc1 |  | inactive |  | Non-Toxic |  | inactive | > 192 | > 192 | inactive |  | > 192 | inactive | > 192 |  | Activity (Candida albicans [14]): 53%; solubility [15]: Insoluble; Activity (Streptococcus mutans [16]): inactive; Activity (Candida albicans [17]): inactive; Activity (Streptococcus mutans [18]): 82% |
| Active | O=C1N[C@@H](Cc2ccc(O)cc2)C(=O)N[C@H]1Cc1ccccc1 | inactive | inactive | Non-Toxic | Toxic | Active | inactive | > 192 | > 192 | inactive | inactive | > 192 | inactive | > 192 | Non-Toxic | inhibition (INH) (Streptococcus mutans [19]): 20%; IC50 (A549): 10 µM |
|  | O=C1N[C@H](Cc2ccc(O)cc2)C(=O)N[C@@H]1Cc1ccccc1 | inactive | inactive | Non-Toxic | Toxic | Active | inactive | > 192 | > 192 | inactive | inactive | > 192 | inactive | > 192 | Non-Toxic | inhibition (INH) (Streptococcus mutans [20]): 20%; MIC (Staphylococcus aureus [21]): 16 µg/mL (≈ 51.6 µM); MIC (Pseudomonas aeruginosa [22]): 32 µg/mL (≈ 103 µM); MIC (Escherichia coli [23]): 64 µg/mL (≈ 206 µM) |
